From patent US20230165873A1, “Methods of Use for Single Molecule Compounds Providing Multi-Target Inhibition to Treat Covid 19” (priority 2020, published 2023)
pIC50: −log10 of the molar value.

What follows are compounds tested against PI3K gamma (Homo sapiens, UniProt P48736) (assay: PI3K gamma in vitro inhibition). Conditions: IC50 inhibition PI3K gamma.
Chain of PI3K gamma (P48736 whole entry): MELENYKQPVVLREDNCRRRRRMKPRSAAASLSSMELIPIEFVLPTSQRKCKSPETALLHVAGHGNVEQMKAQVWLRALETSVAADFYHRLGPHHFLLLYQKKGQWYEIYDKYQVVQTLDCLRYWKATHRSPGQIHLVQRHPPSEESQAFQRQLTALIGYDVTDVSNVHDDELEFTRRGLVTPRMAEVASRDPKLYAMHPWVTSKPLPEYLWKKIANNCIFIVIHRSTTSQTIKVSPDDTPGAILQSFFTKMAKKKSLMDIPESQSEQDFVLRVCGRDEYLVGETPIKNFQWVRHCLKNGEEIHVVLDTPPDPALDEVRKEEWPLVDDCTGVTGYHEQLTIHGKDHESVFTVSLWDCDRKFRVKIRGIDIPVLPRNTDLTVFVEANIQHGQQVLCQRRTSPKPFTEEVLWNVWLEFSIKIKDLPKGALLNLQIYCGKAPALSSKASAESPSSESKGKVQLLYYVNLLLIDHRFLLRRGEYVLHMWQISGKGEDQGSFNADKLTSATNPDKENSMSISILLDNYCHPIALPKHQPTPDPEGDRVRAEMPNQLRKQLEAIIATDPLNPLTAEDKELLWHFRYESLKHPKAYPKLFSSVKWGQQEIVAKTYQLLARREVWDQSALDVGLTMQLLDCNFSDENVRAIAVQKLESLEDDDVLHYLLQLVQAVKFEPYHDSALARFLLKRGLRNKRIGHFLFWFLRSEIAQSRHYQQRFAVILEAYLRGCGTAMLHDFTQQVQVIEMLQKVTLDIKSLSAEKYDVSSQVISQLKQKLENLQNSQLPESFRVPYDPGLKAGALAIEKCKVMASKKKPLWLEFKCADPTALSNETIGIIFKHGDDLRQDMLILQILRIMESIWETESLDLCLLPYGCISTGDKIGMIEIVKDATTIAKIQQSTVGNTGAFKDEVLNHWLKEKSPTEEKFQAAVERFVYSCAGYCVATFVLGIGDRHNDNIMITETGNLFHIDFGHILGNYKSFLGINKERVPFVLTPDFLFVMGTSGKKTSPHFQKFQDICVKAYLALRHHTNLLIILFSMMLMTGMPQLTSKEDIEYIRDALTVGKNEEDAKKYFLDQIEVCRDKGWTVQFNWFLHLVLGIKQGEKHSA
Format: biochemical
Protocol: (§1) The kinase or bromodomain inhibitory activity of a compound of the invention can be determined by routine methods known to the skilled artisan without undue experimentation, or by procuring relevant analysis by a commercial vendor offering such services. […] In vivo, PI3K inhibition can be determined from target tissue biopsies by standard tissue processing in which cells are disrupted and Western Blot analysis is performed to determine the presence or absence of pAKT (substrate of PI3K) relative to a control sample. PI3K inhibition assays and BTK inhibition assays are known in the art and can be procured commercially through vendors such as Reaction Biology (Malvern, PA). The activity of a compound of the invention as an inhibitor of a bromodomain-containing protein, such as a BET protein, including BRD2, BRD3, BRD4, and/or BRDT, or an isoform or mutant thereof, may be determined in vitro, in vivo, or in a cell line. In vitro assays include assays that determine inhibition of bromodomain-containing proteins. Alternatively, inhibitor binding may be determined by running a competition experiment where a provided compound is incubated with a bromodomain-containing protein, such as a BET protein bound to known ligands, labeled or unlabeled. In vitro bromodomain inhibition assays can be performed using Alpha Screen Technology (Perkin Elmer Life and Analytical Sciences, Shelton, CT). In vivo bromodomain inhibition can be determined indirectly by evaluating the amount of a protein whose gene transcription is influenced or controlled by the bromodomain protein, for example, MYCN protein transcription is controlled by BRD4 (J.E. Delmore et al., Cell 2011, 146, 904-917; A. Puissant, Cancer Discov. 2013, 3, 308-323).
(§2) IC50 inhibition data against the indicated targets were determined for compounds of the invention using standard in vitro assays (Tables 8 and 9).
With COc1ccc(C#Cc2csc3c(=O)cc(N4CCOCC4)oc23)cc1 [Compound 5-2] the pIC50 was 6.00 to 6.30.

Same assay, conditions: read-out: IC50 inhibition PI3K gamma
With O=c1cc(N2CCOCC2)oc2c(C#Cc3ccsc3)csc12 [Compound 5-1] the pIC50 was > 6.30.
COc1cc(C#Cc2csc3c(=O)cc(N4CCOCC4)oc23)cc(OC)c1 [Compound 5-3] showed a pIC50 of 5.00 to 6.00.
With O=c1cc(N2CCOCC2)oc2c(C#Cc3ccccc3)csc12 [Compound 5-4] the pIC50 was > 6.30.
With Cc1nc2c(F)cc(-c3nc(Nc4ccc(-c5csc6c(=O)cc(N7CCOCC7)oc56)cc4)ncc3F)cc2n1C(C)C [Compound 25-1] the pIC50 was < 4.35.
Work on CC(=O)c1c(C)c2cnc(Nc3ccc(-c4csc5c(=O)cc(N6CCOCC6)oc45)cc3)nc2n(C2CCCC2)c1=O [Compound 25-2] yielded a pIC50 of 5.00 to 6.00.

The compounds below were run against T1, BRD4-1 (Homo sapiens, UniProt O60885) (assay: BRD4-1 in vitro inhibition). Conditions: not given.
T1 construct: BRD4-1
Format: binding
Protocol: as §1
O=c1cc(N2CCOCC2)oc2c(C#Cc3ccsc3)csc12 [Compound 5-1] showed a pIC50 of 4.35 to 5.00.
COc1ccc(C#Cc2csc3c(=O)cc(N4CCOCC4)oc23)cc1 [Compound 5-2] gave a pIC50 of 6.00 to 6.30.
With COc1cc(C#Cc2csc3c(=O)cc(N4CCOCC4)oc23)cc(OC)c1 [Compound 5-3] the pIC50 was > 6.30.
Work on O=c1cc(N2CCOCC2)oc2c(C#Cc3ccccc3)csc12 [Compound 5-4] yielded a pIC50 of 5.00 to 6.00.
For Cc1nc2c(F)cc(-c3nc(Nc4ccc(-c5csc6c(=O)cc(N7CCOCC7)oc56)cc4)ncc3F)cc2n1C(C)C [Compound 25-1], the pIC50 was < 4.35.
In the case of CC(=O)c1c(C)c2cnc(Nc3ccc(-c4csc5c(=O)cc(N6CCOCC6)oc45)cc3)nc2n(C2CCCC2)c1=O [Compound 25-2], the pIC50 was > 6.30.

Each compound was assayed against PI3K alpha (Homo sapiens, UniProt P42336) (assay: PI3K alpha in vitro inhibition). Conditions: not given.
Chain of PI3K alpha (P42336 whole entry): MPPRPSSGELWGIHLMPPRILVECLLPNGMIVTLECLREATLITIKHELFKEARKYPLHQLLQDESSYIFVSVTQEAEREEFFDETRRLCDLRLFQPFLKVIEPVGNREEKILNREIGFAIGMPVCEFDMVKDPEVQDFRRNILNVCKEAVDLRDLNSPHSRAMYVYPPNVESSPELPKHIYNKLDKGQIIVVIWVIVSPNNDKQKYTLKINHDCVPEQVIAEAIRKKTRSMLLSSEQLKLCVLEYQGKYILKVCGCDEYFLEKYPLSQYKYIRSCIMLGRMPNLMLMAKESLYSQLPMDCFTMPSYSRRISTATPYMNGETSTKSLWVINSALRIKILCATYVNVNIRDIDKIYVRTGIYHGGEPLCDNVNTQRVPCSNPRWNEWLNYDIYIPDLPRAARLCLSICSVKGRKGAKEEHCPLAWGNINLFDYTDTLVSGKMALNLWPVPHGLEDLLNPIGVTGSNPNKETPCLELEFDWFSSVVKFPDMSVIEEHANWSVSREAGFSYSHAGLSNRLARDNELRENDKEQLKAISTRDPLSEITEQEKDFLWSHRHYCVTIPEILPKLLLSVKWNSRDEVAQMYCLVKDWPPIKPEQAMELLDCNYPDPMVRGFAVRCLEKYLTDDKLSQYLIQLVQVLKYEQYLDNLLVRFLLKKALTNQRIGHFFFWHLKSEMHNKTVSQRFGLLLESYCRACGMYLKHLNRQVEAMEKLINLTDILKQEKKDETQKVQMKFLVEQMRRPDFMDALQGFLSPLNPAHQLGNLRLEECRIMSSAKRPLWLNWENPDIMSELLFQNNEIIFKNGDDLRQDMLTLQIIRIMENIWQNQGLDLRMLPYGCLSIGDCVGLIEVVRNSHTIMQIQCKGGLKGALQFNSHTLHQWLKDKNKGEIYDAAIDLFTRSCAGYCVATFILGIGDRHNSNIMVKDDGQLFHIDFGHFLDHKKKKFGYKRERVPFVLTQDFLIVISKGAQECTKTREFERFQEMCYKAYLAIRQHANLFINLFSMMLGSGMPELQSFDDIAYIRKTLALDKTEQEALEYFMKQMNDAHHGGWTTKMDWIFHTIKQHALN
Chain of PI3K alpha (P27986 whole entry partner): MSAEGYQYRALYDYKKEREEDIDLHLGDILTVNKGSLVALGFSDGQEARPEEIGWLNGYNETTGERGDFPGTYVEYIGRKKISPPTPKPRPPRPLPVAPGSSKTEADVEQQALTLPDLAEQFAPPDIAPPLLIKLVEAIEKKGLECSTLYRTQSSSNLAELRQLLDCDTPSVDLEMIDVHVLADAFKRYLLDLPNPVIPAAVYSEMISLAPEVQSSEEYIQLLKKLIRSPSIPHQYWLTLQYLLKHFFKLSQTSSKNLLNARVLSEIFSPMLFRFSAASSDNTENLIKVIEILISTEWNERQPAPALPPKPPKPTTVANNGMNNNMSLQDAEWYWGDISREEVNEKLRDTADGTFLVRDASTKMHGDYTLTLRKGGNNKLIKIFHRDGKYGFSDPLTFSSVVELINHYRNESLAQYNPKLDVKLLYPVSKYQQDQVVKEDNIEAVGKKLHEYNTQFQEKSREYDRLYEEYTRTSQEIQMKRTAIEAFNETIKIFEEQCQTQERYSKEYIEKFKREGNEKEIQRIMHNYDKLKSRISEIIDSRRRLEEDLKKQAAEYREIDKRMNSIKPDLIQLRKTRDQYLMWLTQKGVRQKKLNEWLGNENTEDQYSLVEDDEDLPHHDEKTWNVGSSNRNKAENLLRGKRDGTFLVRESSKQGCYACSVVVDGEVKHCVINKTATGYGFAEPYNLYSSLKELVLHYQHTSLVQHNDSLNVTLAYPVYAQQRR
Format: biochemical
Protocol: as §1
O=c1cc(N2CCOCC2)oc2c(C#Cc3ccsc3)csc12 [Compound 5-1] was tested, and the pIC50 was > 6.30.
COc1ccc(C#Cc2csc3c(=O)cc(N4CCOCC4)oc23)cc1 [Compound 5-2] was tested, and the pIC50 was > 6.30.
For COc1cc(C#Cc2csc3c(=O)cc(N4CCOCC4)oc23)cc(OC)c1 [Compound 5-3], the pIC50 was 6.00 to 6.30.
In the case of O=c1cc(N2CCOCC2)oc2c(C#Cc3ccccc3)csc12 [Compound 5-4], the pIC50 was > 6.30.
Work on Cc1nc2c(F)cc(-c3nc(Nc4ccc(-c5csc6c(=O)cc(N7CCOCC7)oc56)cc4)ncc3F)cc2n1C(C)C [Compound 25-1] yielded a pIC50 of 4.35 to 5.00.
With CC(=O)c1c(C)c2cnc(Nc3ccc(-c4csc5c(=O)cc(N6CCOCC6)oc45)cc3)nc2n(C2CCCC2)c1=O [Compound 25-2] the pIC50 was > 6.30.

What follows are compounds tested against CDK4 cyclinD1 (Homo sapiens, UniProt P11802) (assay: CDK4 cyclinD1 in vitro inhibition). Conditions: not given.
Chain of CDK4 cyclinD1 (P11802 whole entry): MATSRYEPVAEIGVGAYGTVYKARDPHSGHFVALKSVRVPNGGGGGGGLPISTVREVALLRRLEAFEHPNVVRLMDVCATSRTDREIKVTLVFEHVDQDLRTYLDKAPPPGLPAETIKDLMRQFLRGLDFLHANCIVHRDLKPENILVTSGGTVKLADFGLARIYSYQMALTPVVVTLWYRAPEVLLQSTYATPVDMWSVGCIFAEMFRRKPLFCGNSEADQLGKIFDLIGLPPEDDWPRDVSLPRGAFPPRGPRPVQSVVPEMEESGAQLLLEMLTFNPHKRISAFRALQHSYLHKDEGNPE
Chain of CDK4 cyclinD1 (P24385 whole entry partner): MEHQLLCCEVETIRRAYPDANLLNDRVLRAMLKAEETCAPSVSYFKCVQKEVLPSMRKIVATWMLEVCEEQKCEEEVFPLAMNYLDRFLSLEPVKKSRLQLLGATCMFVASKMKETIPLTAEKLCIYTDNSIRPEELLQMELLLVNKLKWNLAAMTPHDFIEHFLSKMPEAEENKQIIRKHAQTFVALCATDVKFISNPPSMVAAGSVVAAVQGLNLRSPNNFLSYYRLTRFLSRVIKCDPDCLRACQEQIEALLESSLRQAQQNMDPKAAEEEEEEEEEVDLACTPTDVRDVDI
Format: biochemical
Protocol: as §1, §2
In the case of Cc1nc2c(F)cc(-c3nc(Nc4ccc(-c5csc6c(=O)cc(N7CCOCC7)oc56)cc4)ncc3F)cc2n1C(C)C [Compound 25-1], the pIC50 was > 6.30.
In the case of CC(=O)c1c(C)c2cnc(Nc3ccc(-c4csc5c(=O)cc(N6CCOCC6)oc45)cc3)nc2n(C2CCCC2)c1=O [Compound 25-2], the pIC50 was > 6.30.

The compounds below were run against T2, BRD4-2 (Homo sapiens, UniProt O60885) (assay: BRD4-2 in vitro inhibition). Conditions: not given.
T2 construct: BRD4-2
Format: binding
Protocol: as §1
O=c1cc(N2CCOCC2)oc2c(C#Cc3ccsc3)csc12 [Compound 5-1] was tested, and the pIC50 was 4.35 to 5.00.
COc1ccc(C#Cc2csc3c(=O)cc(N4CCOCC4)oc23)cc1 [Compound 5-2] showed a pIC50 of 5.00 to 6.00.
In the case of COc1cc(C#Cc2csc3c(=O)cc(N4CCOCC4)oc23)cc(OC)c1 [Compound 5-3], the pIC50 was 6.00 to 6.30.
O=c1cc(N2CCOCC2)oc2c(C#Cc3ccccc3)csc12 [Compound 5-4] gave a pIC50 of 4.35 to 5.00.
In the case of Cc1nc2c(F)cc(-c3nc(Nc4ccc(-c5csc6c(=O)cc(N7CCOCC7)oc56)cc4)ncc3F)cc2n1C(C)C [Compound 25-1], the pIC50 was < 4.35.
For CC(=O)c1c(C)c2cnc(Nc3ccc(-c4csc5c(=O)cc(N6CCOCC6)oc45)cc3)nc2n(C2CCCC2)c1=O [Compound 25-2], the pIC50 was > 6.30.

The compounds below were run against PI3K delta (Homo sapiens, UniProt O00329) (assay: PI3K delta in vitro inhibition). Conditions: not given.
Chain of PI3K delta (O00329 whole entry): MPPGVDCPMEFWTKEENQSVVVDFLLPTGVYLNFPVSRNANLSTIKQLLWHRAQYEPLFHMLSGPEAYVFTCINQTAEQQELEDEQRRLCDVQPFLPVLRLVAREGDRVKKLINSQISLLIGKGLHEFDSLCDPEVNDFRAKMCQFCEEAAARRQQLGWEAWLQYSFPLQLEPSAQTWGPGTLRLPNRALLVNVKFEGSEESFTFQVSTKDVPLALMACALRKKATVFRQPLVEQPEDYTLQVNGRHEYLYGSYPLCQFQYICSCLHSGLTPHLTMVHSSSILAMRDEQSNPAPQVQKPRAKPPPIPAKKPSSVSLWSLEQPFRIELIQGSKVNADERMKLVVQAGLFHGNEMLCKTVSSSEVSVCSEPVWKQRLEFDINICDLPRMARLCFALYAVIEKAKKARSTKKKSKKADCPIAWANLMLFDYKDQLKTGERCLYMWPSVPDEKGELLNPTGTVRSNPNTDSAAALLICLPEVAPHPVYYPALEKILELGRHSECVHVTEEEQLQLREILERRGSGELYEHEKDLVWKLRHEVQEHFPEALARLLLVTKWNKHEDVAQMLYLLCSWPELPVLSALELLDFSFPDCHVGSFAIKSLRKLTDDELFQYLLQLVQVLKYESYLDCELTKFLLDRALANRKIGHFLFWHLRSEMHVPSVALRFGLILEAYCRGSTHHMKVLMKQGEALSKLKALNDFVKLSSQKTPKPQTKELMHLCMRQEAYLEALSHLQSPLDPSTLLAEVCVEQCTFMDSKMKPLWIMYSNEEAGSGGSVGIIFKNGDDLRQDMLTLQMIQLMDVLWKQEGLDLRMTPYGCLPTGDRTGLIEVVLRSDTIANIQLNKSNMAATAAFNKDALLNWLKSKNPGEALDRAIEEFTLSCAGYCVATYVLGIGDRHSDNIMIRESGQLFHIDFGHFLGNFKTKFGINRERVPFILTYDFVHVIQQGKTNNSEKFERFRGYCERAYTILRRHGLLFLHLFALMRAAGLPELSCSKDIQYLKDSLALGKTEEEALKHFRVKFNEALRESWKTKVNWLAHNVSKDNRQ
Chain of PI3K delta (P27986 whole entry partner): as the sequence (P27986 whole entry partner) above
Format: biochemical
Protocol: as §1, §2
For O=c1cc(N2CCOCC2)oc2c(C#Cc3ccsc3)csc12 [Compound 5-1], the pIC50 was > 6.30.
With COc1ccc(C#Cc2csc3c(=O)cc(N4CCOCC4)oc23)cc1 [Compound 5-2] the pIC50 was > 6.30.
In the case of COc1cc(C#Cc2csc3c(=O)cc(N4CCOCC4)oc23)cc(OC)c1 [Compound 5-3], the pIC50 was > 6.30.
O=c1cc(N2CCOCC2)oc2c(C#Cc3ccccc3)csc12 [Compound 5-4] was tested, and the pIC50 was > 6.30.
In the case of Cc1nc2c(F)cc(-c3nc(Nc4ccc(-c5csc6c(=O)cc(N7CCOCC7)oc56)cc4)ncc3F)cc2n1C(C)C [Compound 25-1], the pIC50 was 5.00 to 6.00.
In the case of CC(=O)c1c(C)c2cnc(Nc3ccc(-c4csc5c(=O)cc(N6CCOCC6)oc45)cc3)nc2n(C2CCCC2)c1=O [Compound 25-2], the pIC50 was > 6.30.

Each compound was assayed against CDK6 cyclinD1 (Homo sapiens, UniProt Q00534) (assay: CDK6 cyclinD1 in vitro inhibition). Conditions: not given.
Chain of CDK6 cyclinD1 (Q00534 whole entry): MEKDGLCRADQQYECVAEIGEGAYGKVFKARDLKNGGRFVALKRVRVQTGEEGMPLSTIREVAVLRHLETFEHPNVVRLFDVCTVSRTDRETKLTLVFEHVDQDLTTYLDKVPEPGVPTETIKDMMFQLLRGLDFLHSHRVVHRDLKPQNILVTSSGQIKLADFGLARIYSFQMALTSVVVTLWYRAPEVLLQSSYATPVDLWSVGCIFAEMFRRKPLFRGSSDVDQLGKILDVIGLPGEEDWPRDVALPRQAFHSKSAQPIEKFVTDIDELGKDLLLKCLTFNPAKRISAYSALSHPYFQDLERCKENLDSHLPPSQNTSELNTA
Chain of CDK6 cyclinD1 (P24385 whole entry partner): as the sequence (P24385 whole entry partner) above
Format: biochemical
Protocol: as §1, §2
With Cc1nc2c(F)cc(-c3nc(Nc4ccc(-c5csc6c(=O)cc(N7CCOCC7)oc56)cc4)ncc3F)cc2n1C(C)C [Compound 25-1] the pIC50 was > 6.30.
In the case of CC(=O)c1c(C)c2cnc(Nc3ccc(-c4csc5c(=O)cc(N6CCOCC6)oc45)cc3)nc2n(C2CCCC2)c1=O [Compound 25-2], the pIC50 was > 6.30.
